Measured values taken from ChEMBL document CHEMBL4118250, “Discovery of Novel Pyrazole-Based Selective Aldosterone Synthase (CYP11B2) Inhibitors: A New Template to Coordinate the Heme-Iron Motif of CYP11B2” (J Med Chem, 2018).

Columns and labels:
[1] = Solubility of the compound; type: physicochemical
[2] = Apparent passive permeability in human Caco2 cells; type: ADME, cell-based; details: Caco-2
[3] = test system: Cynomolgus monkey; assay: Time at which maximum plasma concentration stays below in vitro human CYP11B2 IC50 in cynomolgus monkey at 3 mg/kg, po administered as single dose by LC-MS/MS analysis; type: ADME, organism-based, Macaca fascicularis; details: in vivo
[4] = test system: Cynomolgus monkey; assay: Time at which maximum plasma concentration stays above in vitro human CYP11B2 IC50 in cynomolgus monkey at 3 mg/kg, po administered as single dose by LC-MS/MS analysis; type: ADME, organism-based, Macaca fascicularis; details: in vivo
[5] = Tmax in cynomolgus monkey at 1 mg/kg, po administered as single dose by LC-MS/MS analysis; type: ADME, organism-based, Macaca fascicularis; details: in vivo

solubility [1]	Papp [2]	Time [3]	Time [4]	Tmax [5]	Structure (SMILES)
Soluble	68.4 ×10⁻⁶ cm/s	24 h	8 h		Cc1cc(C#N)ccc1-c1cnn2c1C[C@@H](O)C2
	62.3 ×10⁻⁶ cm/s			4 h	Cc1cc(C#N)ccc1-c1cnn2c1C[C@@H](Oc1ncc(F)cn1)C2
